Data reported in the supplement of paper PMC10307832.

Assays:
Experiment in all cases: relative viability (nuclei count vs DMSO), 5 days (fraction); higher = more cells survive
XMD13-2 + OSI-027 = compound: C1CC1C(=O)NC2=NNC3=C2C=CC(=C3)C4=CC(=CC=C4)C(=O)NC5CC5 [XMD13-2] + COc1cccc2cc(-c3nc([C@H]4CC[C@H](C(=O)O)CC4)n4ncnc(N)c34)[nH]c12 [OSI-027] (partner 0.5 µM)
Procedure, shortened: (§1)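 Lung cancer cell lines, seeded in 1536-well plates, were treated the following day by pin tool with a single drug or with five library-drug doses (not always all listed) in √10 steps on top of a fixed anchor-drug dose. Cells were fixed and nuclei stained in one step after 5 days, and nuclei were counted. Relative viability is the nuclei count for treated wells divided by that for vehicle wells, reported as medians of duplicate plates.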

XMD13-2 + Tozasertib = compound: C1CC1C(=O)NC2=NNC3=C2C=CC(=C3)C4=CC(=CC=C4)C(=O)NC5CC5 [XMD13-2] + Cc1cc(Nc2cc(N3CCN(C)CC3)nc(Sc3ccc(NC(=O)C4CC4)cc3)n2)n[nH]1 [Tozasertib] (partner 0.1 µM)
Procedure, shortened: as §1

Dasatinib + Tozasertib = compound: Cc1nc(Nc2ncc(C(=O)Nc3c(C)cccc3Cl)s2)cc(N2CCN(CCO)CC2)n1 [Dasatinib] + Cc1cc(Nc2cc(N3CCN(C)CC3)nc(Sc3ccc(NC(=O)C4CC4)cc3)n2)n[nH]1 [Tozasertib] (partner 0.1 µM)
Procedure, shortened: as §1

Dasatinib + Alpelisib = compound: Cc1nc(Nc2ncc(C(=O)Nc3c(C)cccc3Cl)s2)cc(N2CCN(CCO)CC2)n1 [Dasatinib] + Cc1nc(NC(=O)N2CCC[C@H]2C(N)=O)sc1-c1ccnc(C(C)(C)C(F)(F)F)c1 [Alpelisib] (partner 2 µM)
Procedure, shortened: as §1

Cell Line | relative viability (XMD13-2 + OSI-027; first compound 0.05 µM) | relative viability (XMD13-2 + OSI-027; first compound 0.1581 µM) | relative viability (XMD13-2 + OSI-027; first compound 0.5 µM) | relative viability (XMD13-2 + OSI-027; first compound 1.581 µM) | relative viability (XMD13-2 + OSI-027; first compound 5 µM) | relative viability (XMD13-2 + Tozasertib; first compound 0.05 µM) | relative viability (XMD13-2 + Tozasertib; first compound 0.1581 µM) | relative viability (XMD13-2 + Tozasertib; first compound 0.5 µM) | relative viability (XMD13-2 + Tozasertib; first compound 1.581 µM) | relative viability (XMD13-2 + Tozasertib; first compound 5 µM) | relative viability (Dasatinib + Tozasertib; first compound 0.005 µM) | relative viability (Dasatinib + Tozasertib; first compound 0.01581 µM) | relative viability (Dasatinib + Tozasertib; first compound 0.05 µM) | relative viability (Dasatinib + Tozasertib; first compound 0.1581 µM) | relative viability (Dasatinib + Tozasertib; first compound 0.5 µM) | relative viability (Dasatinib + Alpelisib; first compound 0.005 µM) | relative viability (Dasatinib + Alpelisib; first compound 0.01581 µM) | relative viability (Dasatinib + Alpelisib; first compound 0.05 µM) | relative viability (Dasatinib + Alpelisib; first compound 0.1581 µM) | relative viability (Dasatinib + Alpelisib; first compound 0.5 µM)
H3255 | 0.705 | 0.536 | 0.589 | 0.564 | 0.549 | 0.567 | 0.844 | 0.757 | 0.487 | 0.507 | 0.721 | 0.543 | 0.463 | 0.547 | 0.322 | 0.68 | 0.621 | 0.63 | 0.434 | 0.24
HCC-78 | 0.432 | 0.394 | 0.317 | 0.38 | 0.345 | 0.362 | 0.436 | 0.372 | 0.346 | 0.282 | 0.47 | 0.371 | 0.395 | 0.242 | 0.181 | 0.259 | 0.261 | 0.304 | 0.257 | 0.176
EBC-1 | – | – | – | – | – | – | – | – | – | – | – | – | – | – | – | 0.78 | 0.755 | 0.579 | 0.579 | 0.463
NCI-H2405 | 0.632 | 0.543 | 0.587 | 0.676 | 0.598 | 0.788 | 0.645 | 0.801 | 0.707 | 0.712 | 0.639 | 0.468 | 0.448 | 0.222 | 0.161 | 0.621 | 0.334 | 0.366 | 0.23 | 0.162
A549 | – | – | – | – | – | – | – | – | – | – | – | – | – | – | – | 0.65 | 0.479 | 0.558 | 0.432 | 0.139
NCI-H3122 | 1.02 | 0.924 | 1.02 | 0.917 | 0.7 | 0.467 | 0.395 | 0.378 | 0.377 | 0.373 | 0.38 | 0.388 | 0.414 | 0.373 | 0.292 | 0.835 | 0.858 | 0.87 | 0.693 | 0.718
NCI-H1563 | 0.811 | 0.731 | 0.74 | 0.788 | 0.751 | – | – | – | – | – | – | – | – | – | – | 0.742 | 0.615 | 0.662 | 0.608 | 0.604
HCC-44 | 0.565 | 0.57 | 0.507 | 0.381 | 0.438 | 1.06 | 1.09 | 1.09 | 0.903 | 0.842 | 1.19 | 0.716 | 0.452 | 0.75 | 0.313 | 0.789 | 0.705 | 0.676 | 0.271 | 0.183
PC-3 [JPC-3] | 0.831 | 0.663 | 0.746 | 0.707 | 0.754 | 0.887 | 0.911 | 0.902 | 0.908 | 0.874 | 0.895 | 0.859 | 0.976 | 0.799 | 0.579 | 1.08 | 1.09 | 1.12 | 0.966 | 0.477
NCI-H1993 | 0.448 | 0.5 | 0.511 | 0.558 | 0.432 | 0.627 | 0.529 | 0.565 | 0.615 | 0.545 | 0.524 | 0.435 | 0.563 | 0.448 | 0.377 | 0.702 | 0.66 | 0.653 | 0.521 | 0.587
